Bridge positions count the residues as written; N and C are the ends. Ends that are not written are not given here.
Columns and labels:
[1] = calculated using the CDSSR algorithm [54], cited from earlier work
Excerpt: Table 1 The peptide secondary structural elements. | column: α-Helix / I; α-Helix / II; α-Helix / III; β-Structure / I; β-Structure / II; β-Structure / III; β-Turn; Unordered Structure

[2] = system: TRPV1 channels; experiment: Electrophysiology on TRPV1 channels expressed in Xenopus laevis oocytes; type: cell-based
Experimental: Oocytes were injected with 50 nL of cRNA at a concentration of 1 ng/nL using a micro-injector (Drummond Scientific, Broomall, PA, USA).

[3] = Thermal stability by CD spectroscopy; type: physicochemical; conditions: CD spectra and residual trypsin-inhibitory activity
Experimental: Figure 5 Evaluation of the thermal stability of peptides in deionized water via CD spectroscopy. Recordings of the CD spectra of HCIQ2c1 (a), HMIQ3c1 (b), HCIQ4c7 (c), and HCIQ1c9 (d) were conducted in the far UV region (190–240 nm) after the solutions were incubated over a temperature range from 25 °C to 100 °C for 20–25 min.
Circular dichroism (CD) spectra were recorded on a Chirascan-Plus CD spectropolarimeter (Applied Photophysics, Leatherhead, UK) in quartz cuvettes with an optical path length of 0.1 cm for the peptide spectrum region. The peptides were dissolved in deionized water ([…]) and incubated at temperatures ranging from 25 °C to 100 °C for 20–25 min before recording the CD spectra. The secondary structure elements were calculated using the Provencher–Glockner method using advanced Provencher calculation programs from the CDPro software package (Leatherhead, UK).

[4] = target: T1, Recombinant human P2X7R (Homo sapiens, UniProt Q99572); experiment: SPR binding to immobilized P2X7R extracellular domain; conditions: Biacore 3000, CM5 chip, P2X7R a.a. 47–334, HBS-N pH 7.4, 25 °C, peptide 5–100 μM, two-state (conformational change) binding model
T1 construct: complete extracellular domain, 36.8 kDa; purchased Abbexa LTD, Cambridge, UK
T1 sequence (Q99572 47-334): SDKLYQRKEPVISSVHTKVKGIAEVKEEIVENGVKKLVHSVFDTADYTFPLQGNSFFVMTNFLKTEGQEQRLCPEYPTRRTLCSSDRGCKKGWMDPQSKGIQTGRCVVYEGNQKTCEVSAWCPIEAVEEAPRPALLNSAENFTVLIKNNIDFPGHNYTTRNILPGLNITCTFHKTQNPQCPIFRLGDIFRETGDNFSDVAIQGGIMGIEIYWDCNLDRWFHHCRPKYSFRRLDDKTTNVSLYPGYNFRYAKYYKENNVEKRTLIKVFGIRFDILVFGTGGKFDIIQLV
Experimental: SPR analyses were performed based on using a Biacore 3000 optical biosensor (GE Healthcare, USA) running under the program “Biacore 3000 Control Software v.1.0”. Recombinant human P2X7R (sequence positions of 47–334 a.a.; complete extracellular domain, 36.8 kDa) (Abbexa LTD, Cambridge, UK) was covalently immobilized on the carboxymethylated surface of the Biacore CM5 sensor chip (Cytiva, Chicago, IL, USA), then activated by the 1:1 mixture of 0.2 M 1-ethyl-3-(3-dimethylaminopropyl)carbodiimide hydrochloride (EDC) and 0.05 M N-hydroxysuccinimide (NHS) via the injection of receptor solution (15 μg/mL) in 10 mM sodium acetate (pH 5.0) for 10 min at a flow rate of 5 μL/min. The reference channel without immobilized P2X7R was used to correct the effects of the non-specific binding of peptides to the chip surface. The quantity of the immobilized hP2X7R equaled 12300 RU (resonance units, 1 RU corresponds to 1 pg receptor bound per mm^2 of chip surface). HBS-N (10 mM HEPES, 150 mM NaCl, pH 7.4) (Cytiva, USA) was used as a running buffer for SPR assays. Peptide solutions in the HBS-N buffer over a concentration range of 5–100 μM were passed through biosensor channels (working and reference) at a flow rate of 10 µL/min for 3 min at 25 °C. Dissociation of the formed peptide–P2X7R complexes was registered at the same flow rate for no less than 6 min from the moment of sample injection. […]

[5] = system: Neuro-2a cells; experiment: ATP-induced Neuro-2a cell death (MTT); type: cell-based, murine
Experimental: Figure 11 The effects of the peptides on ATP-induced Neuro-2a cell viability and activation of P2X7R. (a) Impact of the peptides on Neuro-2a cell viability in the presence of 4 mM ATP. The peptides were tested at concentrations of 0.01, 0.1, and 1.0 μM. Cells were incubated with peptides for 1 h at 37 °C, then for 48 h with ATP. […] The peptide effects were evaluated against the effects of ATP. The data are shown as means ± SE; *—p < 0.05 compared to the effect of ATP alone. […]
Then, 20 μL of substance solution was loaded into the cells and incubated for 24 h followed by replacement of the medium with tested substances and 100 μL of fresh medium. […] The absorbance of the converted dye formazan was measured using a Multiskan FC microplate photometer (Thermo Scientific, Waltham, MA, USA) at a wavelength of 570 nm [83, 84]. […] Cytotoxic activity was expressed as the percentage of cell viability.
At the end of the preincubation period, the cells were treated with peptides at concentrations of 0.01, 0.1, 1, and 10 μM for 1 h, after which 600 μM paraquat, 10 μM rotenone, 80 μM of 6-OHDA, 1 mM MPP^+, or 4 mM ATP (Sigma-Aldrich, St. Louis, MO, USA) was added. […] Cell viability was measured after 24 h (with paraquat, rotenone and 6-OHDA) or 48 h (with ATP and MPP^+) using the MTT assay [85, 86, 87].

[6] = system: P2X7R; experiment: ATP-induced YO-PRO-1 uptake in Neuro-2a cells; type: cell-based, murine
Experimental: Figure 11 The effects of the peptides on ATP-induced Neuro-2a cell viability and activation of P2X7R. (a) Impact of the peptides on Neuro-2a cell viability in the presence of 4 mM ATP. The peptides were tested at concentrations of 0.01, 0.1, and 1.0 μM. Cells were incubated with peptides for 1 h at 37 °C, then for 48 h with ATP. (b) Effects of the peptides (0.01, 0.1, and 1.0 μM) on YO-PRO-1 uptake in Neuro-2a cells. ATP was used as a P2X7R agonist. A438079 (10 μM) was used as a standard inhibitor of P2X7R. The peptide effects were evaluated against the effects of ATP. The data are shown as means ± SE; *—p < 0.05 compared to the effect of ATP alone.
For the uptake measurements of the large cationic dye YO-PRO-1, the peptides at final concentrations of 0.01, 0.1, and 1.0 μM were added to the culture medium with Neuro-2a cells and further incubated for 1 h at 37 °C with 5% CO2. Then, the cells were washed once with Hanks’ balanced salt solution (HBSS) (140 mM NaCl, 5 mM KCl, 0.8 mM MgCl2, 2 mM CaCl2, 10 mM glucose, 10 mM HEPES, pH 7.4) and filled with 180 μL of the same buffer. YO-PRO-1 (Sigma-Aldrich, St. Louis, MO, USA) was loaded into the wells to a final concentration of 5 μM, the cells were incubated for 15 min at 37 °C, then ATP was added to a final concentration of 4 mM and the plates were incubated for an additional 10 min. Then, the cells were washed three times with the buffer solution and the fluorescence intensity levels were measured with a PHERAstar FS plate reader (BMG, Germany) at λex = 480 nm and λem = 520 nm. A438079 (10 μM), a standard inhibitor of P2X7R, was used as positive control. The effectiveness of the peptides was evaluated relative to the control with ATP.

[7] = system: P2X7R; type: cell-based, murine
Experimental: Neuro-2a cells were pre-incubated with studied peptides for 1 h at 37 °C with 5% CO2. Then, cells were washed twice with culture medium and loaded with 5 μM Fluo-8 dye (Sigma-Aldrich, St. Louis, MO, USA) and 1 μM Pluronic F-127 (Sigma-Aldrich, St. Louis, MO, USA) and incubated for 40 min at room temperature in HBSS saline at pH 7.4. Then, the cells were washed two times with the same solution but without the fluorescent dye and were incubated for 20–30 min at room temperature in the dark. In some experiments, Ca^2+-free medium was used. Here, 140 mM NaCl, 5 mM KCl, 0.8 mM MgCl2, 10 mM glucose, 10 mM HEPES, 5 mM EGTA, pH 7.4. ATP (1 mM final concentration) were added using a robotic microinjector (20 μL/well), then 10 s later the baseline recording and additional readings were taken up to 50 s at 1 s intervals. The standard P2X7R inhibitor A438079 (Sigma-Aldrich, St. Louis, MO, USA) was used as the inhibitory control. Ionomycin (Sigma-Aldrich, St. Louis, MO, USA) was used to generate a generic calcium signal in cells. Fluo-8 was excited at 488 nm, and the emission at 520 nm was measured with a PHERAstar plate reader (BMG LABTECH, Ortenberg, Germany).

[8] = target: recombinant human P2X7R (47-334, complete extracellular domain) (human) (UniProt Q99572)
[9] = target: recombinant human P2X7R (47-334, complete extracellular domain) (human) (UniProt Q99572); remark: listed apart in the source
[10] = system: 6-OHDA-treated cells; conditions: cited from earlier work
[11] = system: Kv channels; conditions: cited from earlier work
[12] = target: trypsin
[13] = target: trypsin; experiment: enzyme inhibition kinetics (Dixon's method); trypsin 208 nM, substrate BAPNA 0.6 and 1.2 mM, peptide 0-20 uM; three parallel experiments
[14] = target: T2, trypsin (Bos taurus, UniProt P00760); experiment: Residual trypsin-inhibitory activity after heating; type: biochemical; conditions: after heating to 100 °C; 7 μM peptide, 1.2 mM BAPNA, 37 °C, three parallel experiments
T2 sequence (P00760 24-246): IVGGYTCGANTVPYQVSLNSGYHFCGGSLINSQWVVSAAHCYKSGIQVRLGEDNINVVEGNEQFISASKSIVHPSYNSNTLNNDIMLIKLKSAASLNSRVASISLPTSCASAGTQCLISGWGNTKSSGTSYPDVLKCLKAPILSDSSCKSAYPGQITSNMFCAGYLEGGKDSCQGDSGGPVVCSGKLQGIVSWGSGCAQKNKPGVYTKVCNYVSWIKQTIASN
Experimental: Figure 6 The effects of temperature on the trypsin-inhibitory activity levels of peptides. Peptides were incubated at the temperatures for 30 min and their residual activities were measured.
The temperature influence on the activity levels of peptides was assessed by measuring their residual inhibitory activity levels. After preincubation at temperatures ranging from 25 to 100 °C for 25 min, the peptide solutions were added to trypsin solution and the reaction mixtures were incubated for 10 min at 37 °C, then 1.2 mM BAPNA was added, followed by incubation at 37 °C for 30 min. The final concentration of the peptides was 7 μM. Substrate hydrolysis was measured at 410 nm. The residual activity was calculated based on the results of three parallel experiments according to the following equation [60]:% = (1 − residual enzyme activity/enzyme activity without inhibitor) × 100

Sequence of Kunitz-type peptide HCIQ1c9 (A0A6B7FEJ3 15-72 limits assumed): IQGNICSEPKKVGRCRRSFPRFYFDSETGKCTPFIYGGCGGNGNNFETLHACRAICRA

## SHPI-1: Kunitz-type peptide from Stichodactyla helianthus, UniProtKB P31713 (SICSEPKKVGRCKGYFPRFYFDSETGKCTPFIYGGCGGNGNNFETLHQCRAICRA; UniProt P31713 1-55, looked up)
[1]
  Unordered Structure: 40.0
  β-Turn: 18.2
[1]; summary value
  α-Helix III: 20.0
  β-Structure III: 21.8

## Oc1cc2c(cc1O)CN(C(=S)NCCc1ccc(Cl)cc1)CCC2 [capsazepine]
[2]; capsazepine 10 µM (antagonist control)
  effect on TRPV1 channels: blocking of the channels

## IQGNICSEPKKVGRCRGSFPRFYFDSETGKCTPFIYGGCGGNGNNFETLRRCRAICRA (disulfide 6-56, 15-39, 31-52) [HMIQ3c1]
[3]
  thermostability: retains conformation and biological activity until: 90–100 °C
[4]
  Kd: 43.3 µM

## Nc1ncnc2c1ncn2[C@@H]1O[C@H](COP(=O)(O)OP(=O)(O)OP(=O)(O)O)[C@@H](O)[C@H]1O [ATP, adenosine-5’-triphosphate]
[5]; ATP 4 mM, 48 h, compared with control cells
  total dead cells after ATP: up to 30.15 ± 0.68%
[6]; ATP 4 mM
  increase in YO-PRO-1 dye penetration: 49.4 ± 5.9%
[7]; ATP 1 mM
  effect on [Ca2+]i: large sustained increase in [Ca^2+]i

## Kunitz-type peptide HMIQ3c1
[8]
  reduction of ATP (4 mM)-induced YO-PRO-1 dye uptake into mouse Neuro-2a cells; peptide at 0.01, 0.1 and 1.0 uM; value at 0.1 uM: 28.1%
[9]
  decrease of the stable Ca2+ response (Fluo-8) to 1 mM ATP in mouse Neuro-2a cells pre-incubated with the peptide at 0.1, 1.0 and 10.0 uM; value at 10 uM: 40.6%

## Clc1cccc(-c2nnnn2Cc2cccnc2)c1Cl [A438079]
[5]; 10 μM, pre-incubation, 4 mM ATP 48 h, vs ATP alone
  increase in viability of ATP-treated cells: 21.3 ± 0.5%
[6]; 10 μM (standard inhibitor), 4 mM ATP, means ± SE
  reduction of ATP-induced YO-PRO-1 uptake: 18.5 ± 3.2%
[7]; 10 μM, 1 mM ATP, Fluo-8, relative to control, means ± SE
  decrease in ATP-induced stable calcium response: 47.7 ± 4.4%

## COc1cc(CNC(=O)CCCC/C=C/C(C)C)ccc1O [capsaicin]
[2]; capsaicin 2 µM (agonist control)
  effect on TRPV1 channels: activation of the TRPV1 channels

## HCRG1: Kunitz-type peptide from H. crispa, C0HJU6 (RGICSEPKVVGPCKAGLRRFYYDSETGECKPFIYGGCKGNKNNFETLHACRGICRA; UniProt C0HJU6 1-56, looked up)
[10]
  effect on ROS production in 6-OHDA-treated cells: maintained ROS production in 6-OHDA-treated cells at the reference level
[11]
  activity on Kv channels: blockers of Kv channels

## Kunitz-type peptide HCIQ4c7
[12]
  decrease of trypsin-inhibitory activity (BAPNA hydrolysis) of 7 uM peptide after preincubation at 25 to 100 °C; value after 100 °C: 7 % decrease
[8]
  reduction of ATP (4 mM)-induced YO-PRO-1 dye uptake into mouse Neuro-2a cells; peptide at 0.01, 0.1 and 1.0 uM; value at 1 uM: 28.5%
[9]
  decrease of the stable Ca2+ response (Fluo-8) to 1 mM ATP in mouse Neuro-2a cells pre-incubated with the peptide at 0.1, 1.0 and 10.0 uM; value at 10 uM: 59.1%

## Kunitz-type peptide HCIQ1c9
[12]
  decrease of trypsin-inhibitory activity (BAPNA hydrolysis) of 7 uM peptide after preincubation at 60 to 100 °C: 30 to 70 % decrease
[13]
  Ki: 0.63 µM

## HCRG2: Kunitz-type peptide from H. crispa, C0HJU7 (RGICLEPKVVGPCKARIRRFYYDSETGKCTPFIYGGCGGNGNNFETLHACRGICRA; UniProt C0HJU7 1-56, looked up)
[10]
  effect on ROS production in 6-OHDA-treated cells: maintained ROS production in 6-OHDA-treated cells at the reference level
[11]
  activity on Kv channels: blockers of Kv channels

## IQGNICSEPKKVGRCRESFPRFYFDSETGKCTPFIYGGCGGNGNNFETLHACRAICRA (disulfide 6-56, 15-39, 31-52) [HCIQ4c7]
[14]
  decrease in trypsin-inhibitory activity after heating: 7%
[3]
  thermostability: retains conformation and biological activity until: 90–100 °C
[4]
  Kd: 45.5 µM

Source: PMC9103184, “Kunitz-Type Peptides from Sea Anemones Protect Neuronal Cells against Parkinson’s Disease Inductors via Inhibition of ROS Production and ATP-Induced P2X7 Receptor Activation” (International Journal of Molecular Sciences, 2022)
